From the NIST ThermoML archive (doi:10.1016/j.tca.2004.11.022)
± gives the expanded uncertainty stated by the source.

Columns and labels:
[1] = xn = mol fraction of the nth substance listed; conditions: 101 kPa, Liquid; for mass density: Vibrating tube method; for speed of sound: Pulse-echo method
[2] = molar heat capacity at constant pressure; xn = mol fraction of the nth substance listed; conditions: 101 kPa, Liquid, Small sample (50 mg) DSC

COC(=O)OC [dimethyl carbonate] + CCCCCCCC
Conditions | mass density [kg/m3] | molar heat capacity at constant pressure [J/K/mol] | speed of sound [m/s]
[1], 288.15 K, x1 = 0.05047 | 715.14 ± 0.27 | – | –
[1], 288.15 K, x1 = 0.1072 | 725.36 ± 0.27 | – | –
[1], 288.15 K, x1 = 0.1969 | 743.56 ± 0.29 | – | –
[1], 288.15 K, x1 = 0.2958 | 766.42 ± 0.31 | – | –
[1], 288.15 K, x1 = 0.4018 | 794.6 ± 0.34 | – | –
[1], 288.15 K, x1 = 0.5011 | 825 ± 0.38 | – | –
[1], 288.15 K, x1 = 0.5974 | 858.8 ± 0.4 | – | –
[1], 288.15 K, x1 = 0.699 | 900.18 ± 0.42 | – | –
[1], 288.15 K, x1 = 0.7982 | 947.83 ± 0.45 | – | –
[1], 288.15 K, x1 = 0.8992 | 1005.83 ± 0.49 | – | –
[1], 288.15 K, x1 = 0.949 | 1038.95 ± 0.52 | – | –
[1], 293.15 K, x1 = 0.05047 | 710.88 ± 0.27 | – | –
[1], 293.15 K, x1 = 0.1072 | 721.13 ± 0.27 | – | –
[1], 293.15 K, x1 = 0.1969 | 739.1 ± 0.29 | – | –
[1], 293.15 K, x1 = 0.2958 | 761.79 ± 0.31 | – | –
[1], 293.15 K, x1 = 0.4018 | 789.7 ± 0.34 | – | –
[1], 293.15 K, x1 = 0.5011 | 819.9 ± 0.38 | – | –
[1], 293.15 K, x1 = 0.5974 | 853.5 ± 0.4 | – | –
[1], 293.15 K, x1 = 0.699 | 894.47 ± 0.42 | – | –
[1], 293.15 K, x1 = 0.7982 | 941.92 ± 0.45 | – | –
[1], 293.15 K, x1 = 0.8992 | 999.55 ± 0.49 | – | –
[1], 293.15 K, x1 = 0.949 | 1032.56 ± 0.52 | – | –
[1], 298.15 K, x1 = 0.05047 | 706.69 ± 0.27 | – | 1165 ± 1.4
[1], 298.15 K, x1 = 0.1072 | 716.89 ± 0.27 | – | 1158.1 ± 1.4
[1], 298.15 K, x1 = 0.1969 | 734.68 ± 0.29 | – | 1148.9 ± 1.4
[1], 298.15 K, x1 = 0.2958 | 757.15 ± 0.31 | – | 1141.5 ± 1.4
[1], 298.15 K, x1 = 0.4018 | 784.9 ± 0.34 | – | 1136.1 ± 1.4
[1], 298.15 K, x1 = 0.5011 | 814.8 ± 0.38 | – | 1133.7 ± 1.4
[1], 298.15 K, x1 = 0.5974 | 848.1 ± 0.39 | – | 1134.2 ± 1.5
[1], 298.15 K, x1 = 0.699 | 888.77 ± 0.42 | – | 1138.7 ± 1.5
[1], 298.15 K, x1 = 0.7982 | 935.98 ± 0.45 | – | 1149.1 ± 1.5
[1], 298.15 K, x1 = 0.8992 | 993.3 ± 0.49 | – | 1167.7 ± 1.6
[1], 298.15 K, x1 = 0.949 | 1026.12 ± 0.51 | – | 1180.9 ± 1.6
[1], 308.15 K, x1 = 0.05047 | 698.46 ± 0.27 | – | –
[1], 308.15 K, x1 = 0.1072 | 708.37 ± 0.28 | – | –
[1], 308.15 K, x1 = 0.1969 | 725.85 ± 0.29 | – | –
[1], 308.15 K, x1 = 0.2958 | 747.86 ± 0.31 | – | –
[1], 308.15 K, x1 = 0.4018 | 775.1 ± 0.33 | – | –
[1], 308.15 K, x1 = 0.5011 | 804.5 ± 0.37 | – | –
[1], 308.15 K, x1 = 0.5974 | 837.3 ± 0.39 | – | –
[1], 308.15 K, x1 = 0.699 | 877.52 ± 0.41 | – | –
[1], 308.15 K, x1 = 0.7982 | 924.07 ± 0.44 | – | –
[1], 308.15 K, x1 = 0.8992 | 980.86 ± 0.48 | – | –
[1], 308.15 K, x1 = 0.949 | 1013.24 ± 0.51 | – | –
[2], 288.15 K, x1 = 0.05306 | – | 245.12 ± 4.9 | –
[2], 288.15 K, x1 = 0.1016 | – | 240.86 ± 4.8 | –
[2], 288.15 K, x1 = 0.2012 | – | 232.99 ± 4.7 | –
[2], 288.15 K, x1 = 0.2999 | – | 225.81 ± 4.5 | –
[2], 288.15 K, x1 = 0.4012 | – | 219.02 ± 4.4 | –
[2], 288.15 K, x1 = 0.4549 | – | 215.27 ± 4.3 | –
[2], 288.15 K, x1 = 0.5037 | – | 211.61 ± 4.2 | –
[2], 288.15 K, x1 = 0.5561 | – | 207.58 ± 4.2 | –
[2], 288.15 K, x1 = 0.6482 | – | 199.24 ± 4 | –
[2], 288.15 K, x1 = 0.7075 | – | 192.93 ± 3.9 | –
[2], 288.15 K, x1 = 0.7982 | – | 182.94 ± 3.7 | –
[2], 288.15 K, x1 = 0.8484 | – | 177.49 ± 3.5 | –
[2], 288.15 K, x1 = 0.9493 | – | 167.98 ± 3.4 | –
[2], 298.15 K, x1 = 0.05306 | – | 248.71 ± 5 | –
[2], 298.15 K, x1 = 0.1016 | – | 244.21 ± 4.9 | –
[2], 298.15 K, x1 = 0.1496 | – | 240.18 ± 4.8 | –
[2], 298.15 K, x1 = 0.2012 | – | 235.89 ± 4.7 | –
[2], 298.15 K, x1 = 0.2999 | – | 228.26 ± 4.6 | –
[2], 298.15 K, x1 = 0.4012 | – | 220.47 ± 4.4 | –
[2], 298.15 K, x1 = 0.4549 | – | 216.32 ± 4.3 | –
[2], 298.15 K, x1 = 0.5037 | – | 212.23 ± 4.2 | –
[2], 298.15 K, x1 = 0.5561 | – | 207.88 ± 4.2 | –
[2], 298.15 K, x1 = 0.6482 | – | 199.37 ± 4 | –
[2], 298.15 K, x1 = 0.7982 | – | 183.94 ± 3.7 | –
[2], 298.15 K, x1 = 0.8484 | – | 178.74 ± 3.6 | –
[2], 298.15 K, x1 = 0.9493 | – | 169.06 ± 3.4 | –
[2], 308.15 K, x1 = 0.05306 | – | 252.62 ± 5 | –
[2], 308.15 K, x1 = 0.1016 | – | 248.11 ± 5 | –
[2], 308.15 K, x1 = 0.1496 | – | 243.91 ± 4.9 | –
[2], 308.15 K, x1 = 0.2012 | – | 239.35 ± 4.8 | –
[2], 308.15 K, x1 = 0.2999 | – | 231.22 ± 4.6 | –
[2], 308.15 K, x1 = 0.4012 | – | 222.77 ± 4.5 | –
[2], 308.15 K, x1 = 0.4549 | – | 218.33 ± 4.4 | –
[2], 308.15 K, x1 = 0.5037 | – | 213.92 ± 4.3 | –
[2], 308.15 K, x1 = 0.5561 | – | 209.21 ± 4.2 | –
[2], 308.15 K, x1 = 0.5998 | – | 205.31 ± 4.1 | –
[2], 308.15 K, x1 = 0.6482 | – | 200.7 ± 4 | –
[2], 308.15 K, x1 = 0.7982 | – | 185.39 ± 3.7 | –
[2], 308.15 K, x1 = 0.8484 | – | 180.34 ± 3.6 | –
[2], 308.15 K, x1 = 0.8969 | – | 175.52 ± 3.5 | –
[2], 308.15 K, x1 = 0.9493 | – | 170.5 ± 3.4 | –
